From ChEMBL document CHEMBL1201862, “PubChem BioAssay data set” (2004) come the findings set out here.

Among the test systems are BT-549; COLO 205; DU-145; HCC 2998; HCT-116; HCT-15; HT-29; LOX IMVI; MDA-MB-231; MDA-MB-435; NCI-H460; OVCAR-3; OVCAR-4; OVCAR-5; OVCAR-8; SF-268; SR; SW-620; TK-10; UO-31.
Common to all, as to experiment: NCI-60 cell line screen, 48 h

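Protocol summary: plate cells (96-well), add compound at 5 concentrations, incubate 48 h, interpolate endpoints linearly. The concentration for 50% growth inhibition is given as GI50.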 Calls of active or inactive are those of the source. Cut-off read from the data, not from the text of the source: active = GI50 up to about 1.1 µM and inactive = higher.

Regarding `CN(CCC(=O)N1CC(CCl)c2ccc([N+](=O)[O-])cc21)CCC(=O)N1CC(CCl)c2ccc([N+](=O)[O-])cc21` (stereo not given), the GI50 is 23.6 µM (inactive) in the assay on BT-549; 15.4 µM (inactive) in the assay with COLO 205; 31.5 µM (inactive) in the assay on DU-145; 5.79 µM (inactive) in the assay on HCC 2998; 12.6 µM (inactive) in the assay with HCT-116; 13.2 µM with HCT-15. The GI50 with HT-29 is 11.7 µM (inactive); in the assay with LOX IMVI, 7.87 µM (inactive); with MDA-MB-231, 16.7 µM (inactive); in the assay with MDA-MB-435 it was 13.9 µM (inactive); in the assay on NCI-H460, 24.7 µM (inactive); in the assay on OVCAR-3, 11.5 µM (inactive). The GI50 is 42.7 µM (inactive) in the assay with OVCAR-4; > 100 µM (inactive) in the assay with OVCAR-5; 14.3 µM (inactive) in the assay with OVCAR-8; 12.1 µM (inactive) in the assay on SF-268; 1.77 µM (inactive) with SR; 15.6 µM (inactive) in the assay with SW-620. The GI50 in the assay with TK-10 is 10.4 µM (inactive).
Consider `CN(C)CCNC(=O)c1cc([N+](=O)[O-])ccn1`, for which the GI50 with BT-549 is 84.5 µM (inactive); with COLO 205, 13.4 µM (inactive); in the assay with DU-145, > 100 µM (inactive); in the assay on HCC 2998, 40 µM (inactive); in the assay with HCT-116, 24.8 µM (inactive); with HCT-15, 18.1 µM. Also, the GI50 in the assay with HT-29 was 11.4 µM (inactive); with LOX IMVI, 30.1 µM (inactive); with MDA-MB-231 it was 25.4 µM (inactive); with MDA-MB-435, 19 µM (inactive); in the assay with NCI-H460, 38.1 µM (inactive); in the assay with OVCAR-3, 22.5 µM (inactive). Moreover, the GI50 is 20.2 µM (inactive) in the assay on OVCAR-4; 71.4 µM (inactive) in the assay with OVCAR-5; 27.2 µM (inactive) with OVCAR-8; 28.4 µM (inactive) in the assay with SF-268; 54.8 µM (inactive) in the assay on SR; 27 µM (inactive) in the assay with SW-620. For the same compound, the GI50 in the assay with TK-10 and in the assay with UO-31 was > 100 µM (inactive) throughout.
With `CCOC(=O)C1(Cc2ccccc2)CCN(C(=O)c2ccccc2)C2C1C2(Cl)Cl` (stereo not given), the GI50 in the assay with BT-549 was 25.2 µM (inactive); with COLO 205 it was 18.3 µM (inactive); in the assay with DU-145, 33 µM (inactive); with HCC 2998, 14.5 µM (inactive); in the assay on HCT-116 it was 15 µM (inactive); in the assay on HCT-15, 27.8 µM. The GI50 in the assay on HT-29 was 16.6 µM (inactive); in the assay with LOX IMVI, 18.4 µM (inactive); with MDA-MB-231 it was 17.1 µM (inactive); in the assay on MDA-MB-435, 21.1 µM (inactive); with NCI-H460 it was 16.8 µM (inactive); in the assay on OVCAR-3, 18.3 µM (inactive). In addition, the GI50 in the assay with OVCAR-4 was 26 µM (inactive); in the assay on OVCAR-5, 29.9 µM (inactive); in the assay on OVCAR-8 it was 28.3 µM (inactive); with SF-268, 29 µM (inactive); in the assay on SR, 23.6 µM (inactive); in the assay on SW-620, 25.7 µM (inactive). The GI50 with TK-10 was 24.4 µM (inactive); in the assay with UO-31 it was 28.4 µM (inactive).
For `c1ccc(CC(Nc2cccnc2)c2ccccc2)cc1` (stereo not given), the GI50 in the assay on BT-549 was 25.2 µM (inactive); in the assay with COLO 205, 19.8 µM (inactive); with DU-145, 29.6 µM (inactive); in the assay on HCC 2998, 21.2 µM (inactive); in the assay with HCT-116, 15.5 µM (inactive); with HCT-15, 30.3 µM. The GI50 was 16.4 µM (inactive) in the assay on HT-29; 16.2 µM (inactive) in the assay on LOX IMVI; 20 µM (inactive) with MDA-MB-231; 22.9 µM (inactive) in the assay with MDA-MB-435; 23 µM (inactive) with NCI-H460; 16.4 µM (inactive) in the assay with OVCAR-3. The GI50 is 25.7 µM (inactive) in the assay on OVCAR-4; 33.3 µM (inactive) in the assay on OVCAR-5; 28.2 µM (inactive) in the assay with OVCAR-8; 40.6 µM (inactive) in the assay on SF-268; 23.9 µM (inactive) with SR; 33 µM (inactive) in the assay on SW-620. The GI50 in the assay on TK-10 was 32.2 µM (inactive); with UO-31 it was 19.7 µM (inactive).
For `COC(=O)[C@H](Cc1c[nH]c2ccccc12)NC(=O)c1ccccc1I`, the GI50 in the assay on BT-549 is > 100 µM (inactive); with COLO 205 it was 17.5 µM (inactive); in the assay on DU-145, 21.8 µM (inactive); with HCC 2998, 26.4 µM (inactive); with HCT-116, 16.3 µM (inactive); with HCT-15, greater than 100 µM. In addition, the GI50 in the assay with HT-29 was 23.7 µM (inactive); with LOX IMVI, 19.7 µM (inactive); in the assay with MDA-MB-231, 29.1 µM (inactive); in the assay on MDA-MB-435, 25.4 µM (inactive); in the assay on NCI-H460, 24.8 µM (inactive); in the assay with OVCAR-3, 13.6 µM (inactive). Further, the GI50 with OVCAR-4 is 30 µM (inactive); with OVCAR-5, > 100 µM (inactive); in the assay with OVCAR-8 it was 31.7 µM (inactive); with SF-268, 19.8 µM (inactive); in the assay with SR, 24.2 µM (inactive); with SW-620 it was 31.5 µM (inactive). Besides, the GI50 in the assay with TK-10 is 24.4 µM (inactive); in the assay on UO-31, 19.3 µM (inactive).
As to `COc1ccc2c(c1)c(=O)c1c(NCCNCCO)ccc3c(=O)n(CCN(C)C)c(=O)n2c31`, the GI50 was 0.615 µM (active) with BT-549; 0.0467 µM (active) with COLO 205; < 0.0337 µM (active) in the assay with DU-145; < 0.0337 µM (active) in the assay with HCC 2998; < 0.0186 µM (active) in the assay with HCT-116; 0.23 µM in the assay on HCT-15. The GI50 with HT-29 was 0.0352 µM (active); in the assay on LOX IMVI it was 0.0198 µM (active); with MDA-MB-231 it was 0.132 µM (active); with MDA-MB-435, 0.103 µM (active); in the assay with NCI-H460, < 0.0202 µM (active); with OVCAR-3, 0.331 µM (active). Also, the GI50 is 0.0895 µM (active) with OVCAR-4; 0.227 µM (active) in the assay with OVCAR-5; 0.0604 µM (active) in the assay with OVCAR-8; 0.103 µM (active) with SF-268; < 0.01 µM (active) in the assay with SR; < 0.0236 µM (active) in the assay with SW-620. Moreover, the figures for the GI50 with TK-10 and in the assay on UO-31 were 0.187 µM (active) and 0.182 µM (active), respectively.
Consider `N#CC1(C#N)[C@@H]2CCC=C(Sc3ccccc3)[C@@H]21`, for which the GI50 in the assay with BT-549 was 23 µM (inactive); with COLO 205, 17.3 µM (inactive); with DU-145, 16 µM (inactive); in the assay on HCC 2998 it was 16.7 µM (inactive); with HCT-116 it was 15.7 µM (inactive); in the assay on HCT-15, 17.7 µM. The GI50 is 18.6 µM (inactive) with HT-29; 13.9 µM (inactive) in the assay on LOX IMVI; 22.2 µM (inactive) in the assay with MDA-MB-231; 12.9 µM (inactive) in the assay on MDA-MB-435; 19.5 µM (inactive) in the assay with NCI-H460; 17.2 µM (inactive) in the assay with OVCAR-3. Also, the GI50 is 14.3 µM (inactive) in the assay on OVCAR-4; 17.8 µM (inactive) in the assay with OVCAR-5; 16 µM (inactive) in the assay with OVCAR-8; 20.1 µM (inactive) in the assay with SF-268; 13.1 µM (inactive) with SR; 11.9 µM (inactive) with SW-620. The GI50 with TK-10 is 14.6 µM (inactive).
Turning to `c1ccc(/N=C(\N2CCOCC2)N(CCN2CCOCC2)c2ccccc2)cc1`, the GI50 is > 100 µM (inactive) with BT-549; > 100 µM (inactive) with COLO 205; > 100 µM (inactive) in the assay with DU-145; > 100 µM (inactive) in the assay on HCC 2998; 98.2 µM (inactive) in the assay with HCT-116; greater than 100 µM in the assay on HCT-15. Further, the GI50 in the assay on HT-29, with LOX IMVI, with MDA-MB-231, with MDA-MB-435, with NCI-H460 and in the assay on OVCAR-3 was > 100 µM (inactive) in each case. The GI50 in the assay on OVCAR-4, in the assay on OVCAR-8, in the assay on SF-268, in the assay on SR, with SW-620 and in the assay with TK-10 was > 100 µM (inactive) throughout. In addition, in the assay on UO-31, the GI50 is 45.2 µM (inactive).
In the case of `Cc1ccc(S(=O)(=O)OC2C(C3COC(C)(C)O3)OC3OC(C)(C)OC32)cc1` (stereo not given), the GI50 in the assay on BT-549 is > 100 µM (inactive); in the assay on DU-145, > 100 µM (inactive); in the assay on HCC 2998, > 100 µM (inactive); with HCT-116, > 100 µM (inactive); with HCT-15, greater than 100 µM; with HT-29 it was > 100 µM (inactive). Further, the GI50 with LOX IMVI, in the assay on MDA-MB-231, in the assay on MDA-MB-435, with NCI-H460, with OVCAR-3 and with OVCAR-4 was > 100 µM (inactive) in each case. Moreover, the GI50 in the assay with OVCAR-5, in the assay with OVCAR-8, in the assay with SF-268, in the assay with SR, in the assay on SW-620 and in the assay with TK-10 was > 100 µM (inactive) each time. Besides, the GI50 with UO-31 was > 100 µM (inactive).
As to `O=C(NC(Cc1c[nH]cn1)C(=O)N1CCCC1)C1CCCC1` (stereo not given), the GI50 in the assay with BT-549 is > 100 µM (inactive); with COLO 205, > 100 µM (inactive); with DU-145 it was > 100 µM (inactive); in the assay on HCC 2998, > 100 µM (inactive); with HCT-116, > 100 µM (inactive); in the assay on HCT-15, greater than 100 µM. In addition, the GI50 in the assay on HT-29, in the assay with LOX IMVI, in the assay with MDA-MB-231, in the assay with MDA-MB-435, in the assay with NCI-H460 and in the assay on OVCAR-3 was > 100 µM (inactive) throughout. Moreover, the GI50 in the assay with OVCAR-4 is > 100 µM (inactive); in the assay with OVCAR-5 it was > 100 µM (inactive); in the assay with OVCAR-8 it was > 100 µM (inactive); in the assay with SR, 54.1 µM (inactive); in the assay on SW-620, > 100 µM (inactive); with TK-10, > 100 µM (inactive). Besides, the GI50 with UO-31 is > 100 µM (inactive).
